In patent US20100113510A1 (priority 2006, published 2010):
Several values for one entry are separate records, joined by “and”; a condition that tells them apart may be missing. Equal values may be shown once. Read-outs that look alike come from different tables or passages of the source.

Target: T1, human muscarinic acetylcholine M3 receptor (M3-ACh) (Homo sapiens, UniProt P20309)
T1 construct: expressed in transfected cells; host or cells: CHO-K1 (Chinese Hamster Ovary) cell membranes
Experiment: biochemical
Type: binding

[1] = pIC50 (M3 Binding IC50 classes)

T1 sequence (P20309 whole entry): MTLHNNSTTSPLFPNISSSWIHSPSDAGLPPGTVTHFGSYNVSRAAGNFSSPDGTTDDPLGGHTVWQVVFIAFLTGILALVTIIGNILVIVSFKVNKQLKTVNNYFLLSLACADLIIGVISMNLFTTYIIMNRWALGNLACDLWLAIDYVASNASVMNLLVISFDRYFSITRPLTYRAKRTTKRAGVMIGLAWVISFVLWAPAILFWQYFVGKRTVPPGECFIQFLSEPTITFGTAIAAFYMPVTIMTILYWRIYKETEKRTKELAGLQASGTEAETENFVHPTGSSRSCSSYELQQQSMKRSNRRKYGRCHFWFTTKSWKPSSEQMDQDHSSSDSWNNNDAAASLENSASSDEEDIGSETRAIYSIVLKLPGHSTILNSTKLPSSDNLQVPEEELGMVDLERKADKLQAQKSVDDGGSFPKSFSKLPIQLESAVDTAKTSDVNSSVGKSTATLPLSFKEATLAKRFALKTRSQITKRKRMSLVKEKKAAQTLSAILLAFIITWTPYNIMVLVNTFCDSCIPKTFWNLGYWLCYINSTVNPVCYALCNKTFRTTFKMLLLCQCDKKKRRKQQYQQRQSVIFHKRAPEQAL

SMILES	IC50 [1] [nM]	IC50 (read-out: pIC50 (M3 Binding IC50 classes) (converted))
C[C@@](C(=O)O[C@H]1C[N+]2(CC(=O)c3ccccc3)CCC1CC2)(c1ccccc1)N1CCCCC1 [Example 9, (3R)-l-(2-Oxo-2-phenylethyl)-3-{[(2S)-2-phenyl-2-piperidin-1-ylpropanoyl]oxy}-1-azoniabicyclo[2.2.2]octane bromide]	< 2	–
C[C@@](C(=O)O[C@H]1C[N+]2(CC(=O)Nc3ccc(C#N)cc3)CCC1CC2)(c1ccccc1)N1CCCCC1 [Example 11, (3R)-1-{2-[(4-Cyanophenyl)amino]-2-oxoethyl}-3-{[(2S)-2-phenyl-2-piperidin-1-ylpropanoyl]oxy}-1-azoniabicyclo[2.2.2]octane chloride]	2 to 10	–
C[C@@](C(=O)O[C@H]1C[N+]2(CC(=O)Nc3ccc4[nH]ncc4c3)CCC1CC2)(c1ccccc1)N1CCCCC1 [Example 12, (3R)-1-[2-(1H-Indazol-5-ylamino)-2-oxoethyl]-3-{[(2S)-2-phenyl-2-piperidin-1-ylpropanoyl]oxy}-1-azoniabicyclo[2.2.2]octane chloride]	2 to 10	–
C[C@@](C(=O)O[C@H]1C[N+]2(CC(=O)Nc3ccc4ncnn4c3)CCC1CC2)(c1ccccc1)N1CCCCC1 [Example 13, (3R)-1-[2-Oxo-2-([1,2,4]triazolo[1,5-a]pyridin-6-ylamino)ethyl]-3-{[(2S)-2-phenyl-2-piperidin-1-ylpropanoyl]oxy}-1-azoniabicyclo[2.2.2]octane chloride]	< 2	–
C[C@@](C(=O)O[C@H]1C[N+]2(CC(=O)NCc3ccccc3)CCC1CC2)(c1ccccc1)N1CCCCC1 [Example 16, (3R)-1-[2-(Benzylamino)-2-oxoethyl]-3-{[(2S)-2-phenyl-2-piperidin-1-ylpropanoyl]oxy}-1-azoniabicyclo[2.2.2]octane chloride]	2 to 10	–
Cc1ccc(C(=O)C[N+]23CCC(CC2)[C@@H](OC(=O)[C@](C)(c2ccccc2)N2CCCCC2)C3)cc1 [Example 17, (3R)-1-[2-(4-Methylphenyl)-2-oxoethyl]-3-{[(2S)-2-phenyl-2-piperidin-1-ylpropanoyl]oxy}-1-azoniabicyclo[2.2.2]octane bromide]	< 2	–
Cc1nc(-c2ccccc2)c(NC(=O)C[N+]23CCC(CC2)[C@@H](OC(=O)[C@](C)(c2ccccc2)N2CCCCC2)C3)s1 [Example 18, (3R)-1-{2-[(2-Methyl-4-phenyl-1,3-thiazol-5-yl)amino]-2-oxoethyl}-3-{[(2S)-2-pheny1-2-piperidin-1-ylpropanoyl]oxy}-1-azoniabicyclo[2.2.2]octane chloride]	2 to 10	–
CCOC(=O)Cc1csc(NC(=O)C[N+]23CCC(CC2)[C@@H](OC(=O)[C@](C)(c2ccccc2)N2CCCCC2)C3)n1 [Example 19, (3R)-1-(2-{[4-(2-Ethoxy-2-oxoethyl)-1,3-thiazol-2-yl]amino}-2-oxoethyl)-3-{[(2S)-2-phenyl-2-piperidin-1-ylpropanoyl]oxy}-1-azoniabicyclo[2.2.2]octane chloride]	2 to 10	–
Cn1c(=O)oc2cc(CC[N+]34CCC(CC3)[C@@H](OC(=O)[C@](C)(c3ccccc3)N3CCCCC3)C4)ccc21 [Example 25, (3R)-1-[2-(3-Methyl-2-oxo-2,3-dihydro-1,3-benzoxazol-6-yl)ethyl]-3-{[(2S)-2-phenyl-2-piperidin-1-ylpropanoyl]oxy}-1-azoniabicyclo(2.2.2]octane bromide]	< 2	–
C[C@@](C(=O)O[C@H]1C[N+]2(CCCS(=O)(=O)c3ccc(C#N)cc3)CCC1CC2)(c1ccccc1)N1CCCCC1 [Example 35, (3R)-1-{3-[(4-Cyanophenyl)sulfonyl]propyl}-3-{[(2S)-2-phenyl-2-piperidin-1-ylpropanoyl]oxy}-1-azoniabicyclo[2.2.2]octane bromide]	2 to 10	–
C[C@@](C(=O)O[C@H]1C[N+]2(CC[C@H](O)c3ccccc3)CCC1CC2)(c1ccccc1)N1CCCCC1 [Example 38]	< 2	–
C[C@@](C(=O)O[C@H]1C[N+]2(CC[C@@H](O)c3ccccc3)CCC1CC2)(c1ccccc1)N1CCCCC1 [Example 39]	< 2	–
Cc1nc(-c2ccc(OCC[N+]34CCC(CC3)[C@@H](OC(=O)[C@](C)(c3ccccc3)N3CCCCC3)C4)cc2)no1 [Example 43, (3R)-1-{2-[4-(5-Methyl-1,2,4-oxadiazol-3-yl)phenoxy]ethyl}-3-{[(2S)-2-phenyl-2-piperidin-1-ylpropanoyl]oxy}-1-azoniabicyclo[2.2.2]octane bromide]	2 to 10	–
CC(C(=O)O[C@H]1C[N+]2(Cc3nc(-c4ccccc4)no3)CCC1CC2)(c1cccs1)N1CCCCC1 (stereo partly drawn) [Example 83]	< 2	–
CC(C(=O)O[C@H]1C[N+]2(CC(=O)Nc3ccc(C(F)(F)F)cn3)CCC1CC2)(c1cccs1)N1CCCCC1 (stereo partly drawn) [Example 84, (3R)-1-(2-Oxo-2-{[5-(rifluoromethyl)pyridin-2-yl]amino}ethyl)-3-{[2-piperidin-1-yl-2-(2-thienyl)propanoyl]oxy}-1-azoniabicyclo[2.2.2]octane bromide]	–	2 to 10 nM and < 2 nM
